The values below come from US20260232666A1, “COMPOSITIONS AND METHODS FOR INHIBITION OF RAS” (TheRas, Inc., priority 2023, published 2026).

Each structure is given as a SMILES string.

Assay [1] addresses T1, GppNHp-loaded KRAS4b (amino acids 1-169) G12C/C118S protein (Homo sapiens, UniProt P01116, C118S/G12C).
T1 construct: KRAS4b (amino acids 1-169) G12C/C118S protein; made in house
Description: Covalent cysteine 12 modification by MALDI-TOF MS, GppNHp-loaded KRAS G12C. It is filed as binding. As to conditions: 15 minutes reaction time point. In short, it runs like this:
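Covalent adduct formation measured by linear-mode MALDI-TOF MS as modified peak height over summed peak heights, 15 min time point reported. Reactions: KRAS4b 1-169 G12C/C118S (1 μM, loaded with GppNHp, GTP or GDP) plus compound at 1:2.5 ratio, pH 7.3 HEPES/NaCl/MgCl2, room temperature.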

The next assay has as its system pERK in NCI-H358 cells. Description: Cell-based pERK HTRF assay (pERK inhibition in H358 cells). As to conditions: Homo sapiens, NCI-H358, 0.5 h, 30 min incubation. The method in brief: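 NCI-H358 cells were seeded at 4×10^4 cells/well in RPMI/10% FBS, then treated next day for 30 min at 0.25% DMSO (9-point, 3-fold series from 75 μM). Lysates were read by HTRF (d2/Eu cryptate antibody pair, 615 nm emission) after 4–24 h at room temperature to give pERK IC50.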

As a reminder, the IC50 is the concentration at which inhibition is half-maximal. A lower IC50 goes with greater potency in that assay. As to `C=CC(=O)N1C[C@H](N(C)c2nc(OC[C@@]34CCCN3C[C@H](F)C4)nc3cc(-c4ccc(F)c5sc(N)c(C#N)c45)c(F)cc23)C[C@H]1C` [Compound 148], the “GppNHp-KRAS G12C percent of modification” value in assay [1] is “A (percent of modification ≥70%)”. For the same compound, the IC50 in the assay with pERK in NCI-H358 cells is below 100 nM.
For `C=CC(=O)N1CC[C@@H](N(CC)c2nc(OC[C@@]34CCCN3C[C@H](OC)C4)nc3cc(-c4ccc(F)c5sc(N)c(C#N)c45)c(F)cc23)[C@H]1C` [Compound 149], in that order: “A (percent of modification ≥70%)” and below 100 nM.
On the same counts, the results for `C=CC(=O)N1CC[C@@H](N(CC)c2nc(OC[C@@]34CCCN3C[C@H](OC)C4)nc3c(F)c(-c4ccc(F)c5sc(N)c(C#N)c45)c(C(F)(F)F)cc23)[C@H]1C` [Compound 150] are “A (percent of modification ≥70%)” and below 100 nM.
On the same counts, the results for `C=CC(=O)N1CC[C@@H](N(C)c2nc(OC[C@@]34CCCN3C[C@H](OC)C4)nc3c(F)c(-c4ccc(F)c5sc(N)c(C#N)c45)c(C(F)(F)F)cc23)[C@H]1C` [Compound 151] are “A (percent of modification ≥70%)” and below 100 nM.
As to `C=CC(=O)N1C[C@H](N(C)c2nc(OC[C@@H]3CCCN3C)nc3c(F)c(-c4ccc(F)c5sc(N)c(C#N)c45)c(C(F)(F)F)cc23)C[C@@H]1C` [Compound 153], in assay [1], the “GppNHp-KRAS G12C percent of modification” value is on record as “A (percent of modification ≥70%)”. This compound also came in with a half-inhibitory concentration (IC50) in the assay with pERK in NCI-H358 cells below 100 nM.
On the same counts, the results for `C=CC(=O)N1CC[C@@H](N(CC)c2nc(OC[C@@H]3CCCN3C)nc3c(F)c(-c4nc(N)cc(C)c4C(F)(F)F)c(C(F)(F)F)cc23)[C@H]1C` [Compound 155] are “C (10%≤percent of modification <50%)” and below 100 nM.
On the same counts, the results for `C=CC(=O)N1CC[C@@H](N(C)c2nc(OC[C@]34CCCN3C[C@H](OC)C4)nc3c(F)c(-c4ccc(F)c5sc(N)c(C#N)c45)c(C(F)(F)F)cc23)[C@H]1C` [Compound 156] are “A (percent of modification ≥70%)” and below 100 nM.
For `C=CC(=O)N1CC[C@@H](N(CC)c2nc(OC[C@]34CCCN3C[C@H](OC)C4)nc3c(F)c(-c4ccc(F)c5sc(N)c(C#N)c45)c(C(F)(F)F)cc23)[C@H]1C` [Compound 158], in that order: “A (percent of modification ≥70%)” and below 100 nM.
Regarding `C=CC(=O)N1CC[C@@H](N(CC)c2nc(OC[C@]34CCCN3C[C@H](F)C4)nc3c(F)c(-c4ccc(F)c5sc(N)c(C#N)c45)c(C(F)(F)F)cc23)[C@H]1C` [Compound 159], in assay [1], the “GppNHp-KRAS G12C percent of modification” value was “A (percent of modification ≥70%)”. The compound further gave an IC50 in the assay on pERK in NCI-H358 cells below 100 nM.
For `C=CC(=O)N1CC[C@@H](N(C)c2nc(OC[C@]34CCCN3C[C@H](OC)C4)nc3c(F)c(-c4ccc(F)c5sc(N)c(C#N)c45)c(Cl)cc23)[C@H]1C` [Compound 161], in that order: “A (percent of modification ≥70%)” and below 100 nM.
Turning to `C=CC(=O)N1CC[C@@H](N(CC)c2nc(OC[C@@]34CCCN3C[C@H](OC)C4)nc3c(F)c(-c4ccc(F)c5sc(N)c(C#N)c45)c(Cl)cc23)[C@H]1C` [Compound 163], the “GppNHp-KRAS G12C percent of modification” value in assay [1] is “A (percent of modification ≥70%)”. The compound also yielded an IC50 in the assay on pERK in NCI-H358 cells below 100 nM.
For `C=CC(=O)N1CC[C@@H](N(CC)c2nc(OC[C@]34CCCN3C[C@H](OC)C4)nc3c(F)c(-c4ccc(F)c5sc(N)c(C#N)c45)c(Cl)cc23)[C@H]1C` [Compound 164], in that order: “A (percent of modification ≥70%)” and below 100 nM.
For `C=CC(=O)N1CC[C@@H](N(CC)c2nc(OC[C@]34CCCN3C[C@H](F)C4)nc3c(F)c(-c4ccc(F)c5sc(N)c(C#N)c45)c(Cl)cc23)[C@H]1C` [Compound 165], in that order: “A (percent of modification ≥70%)” and below 100 nM.
For `C=CC(=O)N1CC[C@@H](N(CC)c2nc(OC[C@]34CCCN3C[C@H](F)C4)nc3cc(-c4ccc(F)c5sc(N)c(C#N)c45)c(F)cc23)[C@H]1C` [Compound 167], in that order: “A (percent of modification ≥70%)” and below 100 nM.
`C=CC(=O)N1CC[C@@H](N(CC)c2nc(OC[C@]34CCCN3C[C@H](OC)C4)nc3c(F)c(-c4ccc(F)c5sc(N)c(C#N)c45)ccc23)[C@H]1C` [Compound 169]: the “GppNHp-KRAS G12C percent of modification” value in assay [1] is on record as “A (percent of modification ≥70%)”. The IC50 in the assay with pERK in NCI-H358 cells was in the range of 100 to 1000 nM.
